Data published in PubChem BioAssay AID248 (DTP/NCI, 2004).
Values joined by “and” are separate entries in the source; they are usually repeats but may differ in a detail not shown here. Equal entries are not always repeated. Inconclusive results and toxic doses are left out. Rule as the data show it: active = T/C of 150% or more; inactive = T/C below 125%.

Test system: L1210 leukemia ip in BDF1 mice, survival T/C
Test: NCI In Vivo Anticancer Drug Screen. Data for tumor model L1210 Leukemia (intraperitoneal) in B6D2F1 (BDF1) mice
Settings: endpoint: mean survival time, higher = longer survival
Outline: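 Value reflects the ratio of survival in compound-treated mice to survival in vehicle-treated controls, with both groups carrying the same transplanted tumor.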

[1] = dose: 100.0 mg/kg/injection, schedule: Q01DX009 (ip), vehicle: saline
[2] = dose: 100.0 mg/kg/injection, schedule: Q04DX003 (ip), vehicle: saline
[3] = dose: 200.0 mg/kg/injection, schedule: Q01DX009 (ip), vehicle: saline
[4] = dose: 200.0 mg/kg/injection, schedule: Q04DX003 (ip), vehicle: saline
[5] = dose: 400.0 mg/kg/injection, schedule: Q04DX003 (ip), vehicle: saline
[6] = dose: 50.0 mg/kg/injection, schedule: Q01DX001 (ip), vehicle: carboxymethylcellulose (CMC)
[7] = dose: 200.0 mg/kg/injection, schedule: Q01DX001 (ip), vehicle: carboxymethylcellulose (CMC)
[8] = dose: 400.0 mg/kg/injection, schedule: Q01DX001 (ip), vehicle: carboxymethylcellulose (CMC)
[9] = dose: 100.0 mg/kg/injection, schedule: Q01DX009 (ip), vehicle: Klucel (hydroxypropylcellulose) (HPC)
[10] = dose: 200.0 mg/kg/injection, schedule: Q01DX009 (ip), vehicle: Klucel (hydroxypropylcellulose) (HPC)
[11] = dose: 400.0 mg/kg/injection, schedule: Q01DX009 (ip), vehicle: Klucel (hydroxypropylcellulose) (HPC)
[12] = dose: 100.0 mg/kg/injection, schedule: Q01DX001 (ip), vehicle: saline with Tween-80
[13] = dose: 200.0 mg/kg/injection, schedule: Q01DX001 (ip), vehicle: saline with Tween-80
[14] = dose: 400.0 mg/kg/injection, schedule: Q01DX001 (ip), vehicle: saline with Tween-80
[15] = dose: 100.0 mg/kg/injection, schedule: Q04DX003 (ip), vehicle: Klucel (hydroxypropylcellulose) (HPC)
[16] = dose: 200.0 mg/kg/injection, schedule: Q04DX003 (ip), vehicle: Klucel (hydroxypropylcellulose) (HPC)
[17] = dose: 400.0 mg/kg/injection, schedule: Q04DX003 (ip), vehicle: Klucel (hydroxypropylcellulose) (HPC)
[18] = dose: 75.0 mg/kg/injection, schedule: Q01DX001 (ip), vehicle: carboxymethylcellulose (CMC)
[19] = dose: 150.0 mg/kg/injection, schedule: Q01DX001 (ip), vehicle: carboxymethylcellulose (CMC)
[20] = dose: 50.0 mg/kg/injection, schedule: Q01DX001 (ip), vehicle: saline
[21] = dose: 100.0 mg/kg/injection, schedule: Q01DX001 (ip), vehicle: saline
[22] = dose: 200.0 mg/kg/injection, schedule: Q01DX001 (ip), vehicle: saline
[23] = dose: 400.0 mg/kg/injection, schedule: Q01DX001 (ip), vehicle: saline
[24] = dose: 100.0 mg/kg/injection, schedule: Q01DX009 (ip), vehicle: saline with Tween-80
[25] = dose: 200.0 mg/kg/injection, schedule: Q01DX009 (ip), vehicle: saline with Tween-80
[26] = dose: 400.0 mg/kg/injection, schedule: Q01DX009 (ip), vehicle: saline with Tween-80

Measured: T/C

CCn1c(O)c(C=N)c(=O)[nH]c1=O
inactive: [1] 96 % of control | [2] 88 % of control | [3] 93 % of control | [4] 95 % of control | [5] 90 % of control

C=CCC(O)CCCCC (stereo not drawn)
inactive: [6] 101 % of control | dose: 100.0 mg/kg/injection, schedule: Q01DX001 (ip), vehicle: carboxymethylcellulose (CMC) 92 % of control | [7] 97 % of control | [8] 106 % of control

O=C(Nc1ccc(Cl)cc1Cl)Sc1ccc(Cl)cc1
inactive: [9] 91 % of control | [10] 96 % of control | [11] 88 % of control

COC(=O)C(NC(=O)COc1ccccc1[N+](=O)[O-])C(=O)OC
inactive: [12] 100 % of control | [13] 95 % of control | [14] 97 % of control

O=CNC(NC=O)c1ccccc1[N+](=O)[O-]
inactive: [9] 101 % of control | [15] 104 % of control | [10] 98 % of control | [16] 98 % of control | [11] 97 % of control | [17] 100 % of control

NC(CC(=O)CCl)C(=O)O (stereo not drawn)
inactive: dose: 9.4 mg/kg/injection, schedule: Q01DX009 (ip), vehicle: saline 107 % of control | dose: 18.8 mg/kg/injection, schedule: Q01DX009 (ip), vehicle: saline 102 % of control | dose: 22.0 mg/kg/injection, schedule: Q04DX003 (ip), vehicle: saline 121 % of control | [18] 121 % of control | dose: 75.0 mg/kg/injection, schedule: Q01DX009 (ip), vehicle: carboxymethylcellulose (CMC) 88 % of control | [19] 109 % of control

CCCCCCCCCCCCCCCCC
inactive: [12] 113 % of control | [13] 108 % of control | [14] 97 % of control

COCCN(N=O)C(=O)NC1CCCCC1
inactive: dose: 700.0 mg/kg/injection, schedule: Q01DX001 (ip), vehicle: carboxymethylcellulose (CMC) 124 % of control | dose: 800.0 mg/kg/injection, schedule: Q01DX001 (ip), vehicle: carboxymethylcellulose (CMC) 124 % of control | dose: 1000.0 mg/kg/injection, schedule: Q01DX001 (ip), vehicle: carboxymethylcellulose (CMC) 117 % of control

O=C(Nc1cccc(Cl)c1Cl)Sc1ccccc1O
inactive: [9] 104 % of control | [10] 97 % of control

CCCCc1[nH]ccc2c(C)c3nc4ccccc4c3cc12
inactive: [20] 96 % of control | [21] 97 % of control | [22] 96 % of control | [23] 97 % of control

O=C(Nc1ccccc1F)OCCOc1ccccc1Cl
inactive: [9] 115 % of control | [10] 112 % of control | [11] 124 % of control

O=C1NC(=O)C(c2ccco2)N1 (stereo not drawn)
inactive: [15] 105 % of control | [16] 103 % of control | [17] 114 % of control

CC(=O)Nc1ccc(S(=O)(=O)Nc2ccccc2C(F)(F)F)cc1
inactive: [24] 93 % of control | [25] 104 % of control | [26] 91 % of control

CCOC(=O)c1cc(Cl)c(N)c(Cl)c1
inactive: [9] 93 % of control | [10] 90 % of control | [11] 100 % of control

COc1ccc([P+](Cc2ccccc2)(c2ccccc2)c2ccc3ccccc3c2)cc1 (stereo not drawn)
inactive: [18] 91 % of control | [19] 96 % of control

O=S(/C=C/c1ccccc1)c1ccc(Br)cc1 (stereo not drawn)
inactive: [2] 100 % of control | [4] 93 % of control | [5] 100 % of control

Cc1c(C)c2c(c(C)c1O)CCC(C)(C)O2
inactive: dose: 50.0 mg/kg/injection, schedule: Q01DX009 (ip), vehicle: Klucel (hydroxypropylcellulose) (HPC) 97 % of control | [9] 100 % of control | [10] 103 % of control

C=CCc1c(C)cc(C)c(C)c1O
inactive: dose: 50.0 mg/kg/injection, schedule: Q01DX009 (sc), vehicle: olive oil, sesame oil, peanut oil 105 % of control | dose: 50.0 mg/kg/injection, schedule: Q04DX003 (sc), vehicle: olive oil, sesame oil, peanut oil 113 % of control | dose: 100.0 mg/kg/injection, schedule: Q01DX009 (sc), vehicle: olive oil, sesame oil, peanut oil 105 % of control | dose: 100.0 mg/kg/injection, schedule: Q04DX003 (sc), vehicle: olive oil, sesame oil, peanut oil 106 % of control | dose: 200.0 mg/kg/injection, schedule: Q01DX009 (sc), vehicle: olive oil, sesame oil, peanut oil 104 % of control | dose: 200.0 mg/kg/injection, schedule: Q04DX003 (sc), vehicle: olive oil, sesame oil, peanut oil 101 % of control

O=C(NCCO)Nc1cccc2ccccc12
inactive: [21] 95 % of control | [22] 95 % of control | [23] 90 % of control

CC1CN1P(=O)(N1CC=CCC1)N1CC1C (stereo not drawn)
inactive: [20] 109 % of control | [21] 120 % of control | [22] 101 % of control | [23] 91 % of control

C(Sc1ccccc1)=C(Sc1ccccc1)Sc1ccccc1
inactive: dose: 6.25 mg/kg/injection, schedule: Q01DX009 (ip), vehicle: other 94 % of control | dose: 125.0 mg/kg/injection, schedule: Q01DX009 (ip), vehicle: other 105 % of control | dose: 250.0 mg/kg/injection, schedule: Q01DX009 (ip), vehicle: other 98 % of control

O=C1NC(=O)c2ccc(S)c3cccc1c23
inactive: [24] 94 % of control | [25] 90 % of control | [26] 97 % of control

O=[N+]([O-])c1ccc(CC(O)c2ccccc2)cc1 (stereo not drawn)
inactive: dose: 50.0 mg/kg/injection, schedule: Q04DX003 (ip), vehicle: Klucel (hydroxypropylcellulose) (HPC) 105 % of control | [9] 111 % of control | [15] 102 % of control | [10] 107 % of control | [16] 105 % of control | [11] 103 % of control | [17] 105 % of control

Nc1ccc(Br)cc1
inactive: [24] 100 % of control | [25] 95 % of control | [26] 99 % of control

Cc1cc(Cl)ccc1NC(=O)OCCOc1ccc([N+](=O)[O-])cc1
inactive: dose: 12.5 mg/kg/injection, schedule: Q01DX009 (ip), vehicle: saline with Tween-80 107 % of control | dose: 25.0 mg/kg/injection, schedule: Q01DX009 (ip), vehicle: saline with Tween-80 91 % of control | dose: 50.0 mg/kg/injection, schedule: Q01DX009 (ip), vehicle: saline with Tween-80 110 % of control

CC1(OC(=O)c2ccc([N+](=O)[O-])cc2)CC2CC1c1ccccc12 (stereo not drawn)
inactive: [6] 90 % of control | [7] 111 % of control | [8] 90 % of control

CCCCCCC(=O)C(C)C
inactive: [9] 93 % of control | [15] 89 % of control | [10] 96 % of control | [16] 88 % of control | [11] 106 % of control | [17] 98 % of control

CC(=NC1CC(C)CC(C)(C)C1)C1CC1 (stereo not drawn)
inactive: dose: 55.0 mg/kg/injection, schedule: Q01DX Z (ip), vehicle: methylcellulose (MC) 100 % of control | dose: 83.0 mg/kg/injection, schedule: Q01DX Z (ip), vehicle: methylcellulose (MC) 89 % of control | dose: 125.0 mg/kg/injection, schedule: Q01DX Z (ip), vehicle: methylcellulose (MC) 100 % of control

Cc1ccc(CNc2ccc(C)cc2)cc1
inactive: [9] 100 % of control | [15] 98 % of control | [10] 106 % of control | [16] 100 % of control | [11] 99 % of control | [17] 95 % of control

NC(N)=Nc1ccc(C(=O)Nc2ccc([N+](=O)[O-])cc2)cc1
inactive: dose: 50.0 mg/kg/injection, schedule: Q01DX009 (ip), vehicle: saline 101 % of control | [1] 94 % of control | [2] 95 % of control | [3] 90 % of control | [4] 101 % of control | [5] 97 % of control

O=C(CCCl)c1ccccc1
inactive: dose: 100.0 mg/kg/injection, schedule: Q04DX002 (ip), vehicle: Klucel (hydroxypropylcellulose) (HPC) 97 % of control | dose: 200.0 mg/kg/injection, schedule: Q04DX002 (ip), vehicle: Klucel (hydroxypropylcellulose) (HPC) 94 % of control

CCS(=O)CC
inactive: dose: 100.0 mg/kg/injection, schedule: Q04DX002 (ip), vehicle: saline 106 % of control | [2] 101 % of control and 108 % of control | dose: 200.0 mg/kg/injection, schedule: Q04DX002 (ip), vehicle: saline 89 % of control | [4] 94 % of control and 97 % of control | dose: 400.0 mg/kg/injection, schedule: Q04DX002 (ip), vehicle: saline 95 % of control | [5] 101 % of control and 104 % of control
